Results on 2 compounds are retold here after ChEMBL document CHEMBL5352386 (Eur J Med Chem, 2022).

A short description of series [1]: Acute toxicity in overnight fasted male ICR mouse assessed as body weight loss at 1 g/Kg, IG administered as single dose measured upto 15 days. As to conditions: in vivo, po, 1000 mg/kg, 360 h, time < 15 day.
Series [2] addresses T1, Cholinesterase (Homo sapiens, UniProt P06276). As to the kind of experiment: Inhibition of human BuChE using butyrylthiocholine iodide as substrate incubated for 10 mins followed by substrate addition by DTNB-reagent based Ellman's colorimetric assay. A general note: In Ellman's method for cholinesterases, released thiocholine reacts with DTNB.
The test system of series [3] is BV-2. The series can be described thus: Induction of antioxidant effect in mouse BV-2 cells assessed as prevention of LPS-induced ROS production preincubated for 1 hr with compound followed by LPS stimulation and measured after 24 hrs by DCFH-DA staining based inverted fluorescence microscopy analysis. Particulars: time 25.0 hrs. The format is functional, cell-based.

The test system of series [4] is Mus musculus. As to the kind of experiment: Neuroprotective activity against Abeta42 induced cognition impairement in AD mouse model assessed as reduction in latency time to platform at 10 mg/kg, po measured after 14 days by Morris water maze analysis. It is filed as functional, organism-based. As to conditions: time 14.0 day.
Series [5] is described as follows: Acute toxicity in overnight fasted female ICR mouse assessed as body weight loss at 1 g/Kg, IG administered as single dose measured upto 15 days. Particulars: in vivo, po, 1000 mg/kg, 360 h, time < 15 day.
Series [6] concerns Mus musculus. As to the kind of experiment: Neuroprotective activity against Abeta42 induced cognition impairement in AD mouse model assessed as reduction in confusion of escape trajectory at 10 mg/kg, po measured after 14 days. The format is functional, organism-based. Particulars: time 14.0 day.
Series [7] relates to PC-12. The series can be described thus: Cytotoxicity against rat PC12 cells assessed as survival rate at 100 uM measured after 24 hrs by MTT assay relative to control. As to conditions: PC-12, 24 h, read-out: Survival. In general terms: Tetrazolium assays rely on reduction of a dye to a coloured formazan, in cell work by metabolically active cells.
Series [8] has as its system SH-SY5Y. As to the kind of experiment: Cytotoxicity against human SH-SY5Y cells assessed as inhibition of cell growth measured after 24 hrs by MTT assay. The format is functional, cell-based.
The subject of series [9] is PC-12. As to the kind of experiment: Cytoprotective activity against H2O2 induced cell damage in rat PC12 cells at 10 to 20 uM preincubated for 1 hr with compound followed by co-incubation with H2O2 and measured after 24 hrs by MTT assay. The format is functional, cell-based. Particulars: dose 10-20 µM, time 25.0 hrs.
Series [10] has as its system L02. The series can be described thus: Cytotoxicity against human L02 cells assessed as survival rate at 100 uM measured after 24 hrs by MTT assay relative to control. The format is functional. As to conditions: read-out: Survival.
The nature of series [11]: Cytotoxicity against mouse BV-2 cells assessed as inhibition of cell growth measured after 24 hrs by MTT assay. The format is toxicity, cell-based.
Series [12] is described as follows: Acute toxicity in overnight fasted male ICR mouse assessed as animal death at 1 g/Kg, IG administered as single dose measured upto 15 days. As to conditions: in vivo, po, 1000 mg/kg, 360 h, time < 15 day.
Series [13] has as its system SH-SY5Y. As to the kind of experiment: Neuroprotective activity against Abeta1-42 induced toxicity in human SH-SY5Y cells at 1 to 5 uM preincubated for 1 hr with compound followed by co-incubation with Abeta1-42 and measured after 24 hrs by MTT assay. It is filed as functional, cell-based. As to conditions: dose 1-5 µM, time 25.0 hrs.
A short description of series [14]: Acute toxicity in overnight fasted female ICR mouse assessed as animal death at 1 g/Kg, IG administered as single dose measured upto 15 days. Particulars: in vivo, po, 1000 mg/kg, 360 h, time < 15 day.
Series [15] concerns SH-SY5Y. As to the kind of experiment: Induction of antioxidant effect in human SH-SY5Y cells assessed as prevention of Abeta1-42 induced ROS production preincubated for 1 hr with compound followed by Abeta1-42 stimulation and measured after 24 hrs by DCFH-DA staining based inverted fluorescence microscopy analysis. It is filed as functional, cell-based. As to conditions: time 25.0 hrs.

The nature of series [16]: Acute toxicity in overnight fasted female ICR mouse assessed as abnormal behavior at 1 g/Kg, IG administered as single dose measured upto 15 days. As to conditions: in vivo, po, 1000 mg/kg, 360 h, time < 15 day.
Series [17] has as its system SH-SY5Y. As to the kind of experiment: Neuroprotective activity against glutamate induced toxicity in human SH-SY5Y cells at low concentration preincubated for 1 hr with compound followed by co-incubation with glutamate and measured after 24 hrs by MTT assay. As to conditions: time 25.0 hrs. It is filed as functional, cell-based.
A short description of series [18]: Acute toxicity in overnight fasted male ICR mouse assessed as abnormal behavior at 1 g/Kg, IG administered as single dose measured upto 15 days. Particulars: in vivo, po, 1000 mg/kg, 360 h, time < 15 day.
A short description of series [19]: Metabolic stability in human liver microsomes assessed as half life at 1 uM incubated upto 50 mins in presence of NADPH by LC/MS/MS analysis. It is filed as ADME, Microsome. A general note: Liver microsomes are a subcellular fraction often used to study metabolism.
Series [20] can be described thus: Metabolic stability in human liver microsomes assessed as parent compound remaining at 1 uM incubated upto 50 mins in presence of NADPH by LC/MS/MS analysis. As to conditions: read-out: Stability. It is filed as ADME, Microsome.
Series [21] concerns the target Cholinesterase (Equus caballus, UniProt P81908). The series can be described thus: Inhibition of equine serum BuChE using butyrylthiocholine iodide as substrate incubated for 10 mins followed by substrate addition by DTNB-reagent based Ellman's colorimetric assay.
Series [22] addresses T1, Cholinesterase. As to the kind of experiment: Binding affinity to human BChE assessed as dissociation constant by Surface Plasmon Resonance assay.
The subject of series [23] is SH-SY5Y. As to the kind of experiment: Neuroprotective activity against glutamate induced toxicity in human SH-SY5Y cells assessed as effect on cell survival rate at 10 to 20 uM preincubated for 1 hr with compound followed by co-incubation with glutamate and measured after 24 hrs by MTT assay. As to conditions: dose 10-20 µM, time 25.0 hrs. It is filed as functional, cell-based.

Series [24] deals with SH-SY5Y. The series can be described thus: Cytotoxicity against human SH-SY5Y cells assessed as survival rate at 2.5 uM measured after 24 hrs by MTT assay relative to control. It is filed as functional. Particulars: read-out: Survival.
Series [25] relates to L02. The series can be described thus: Cytotoxicity against human L02 cells assessed as survival rate at 2.5 uM measured after 24 hrs by MTT assay relative to control. The format is functional. As to conditions: read-out: Survival.
A short description of series [26]: Cytotoxicity against mouse BV-2 cells assessed as survival rate at 2.5 uM measured after 24 hrs by MTT assay relative to control. It is filed as toxicity, cell-based. As to conditions: read-out: Survival.

Each structure is given as a SMILES string. The source made the active and inactive calls. The calls are words filed in the database; no cut-off is given here.

T1 sequence (P06276 whole entry): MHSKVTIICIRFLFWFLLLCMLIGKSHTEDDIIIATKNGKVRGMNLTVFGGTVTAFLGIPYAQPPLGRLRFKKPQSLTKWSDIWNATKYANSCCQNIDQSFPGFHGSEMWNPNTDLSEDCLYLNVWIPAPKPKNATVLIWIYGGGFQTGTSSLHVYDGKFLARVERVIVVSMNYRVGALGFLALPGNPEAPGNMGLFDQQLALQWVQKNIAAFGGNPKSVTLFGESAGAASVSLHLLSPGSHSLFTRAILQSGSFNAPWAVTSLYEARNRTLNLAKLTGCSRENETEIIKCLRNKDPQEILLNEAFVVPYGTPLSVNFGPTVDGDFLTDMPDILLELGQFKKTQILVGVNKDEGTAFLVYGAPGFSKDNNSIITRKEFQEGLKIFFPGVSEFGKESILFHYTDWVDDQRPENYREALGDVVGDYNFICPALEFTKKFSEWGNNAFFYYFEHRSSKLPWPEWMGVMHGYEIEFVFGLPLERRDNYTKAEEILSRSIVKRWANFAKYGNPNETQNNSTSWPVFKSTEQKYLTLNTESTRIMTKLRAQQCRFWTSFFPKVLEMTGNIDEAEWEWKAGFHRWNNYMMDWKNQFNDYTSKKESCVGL
Sequence of Cholinesterase (Equus caballus, UniProt P81908) (P81908 whole entry): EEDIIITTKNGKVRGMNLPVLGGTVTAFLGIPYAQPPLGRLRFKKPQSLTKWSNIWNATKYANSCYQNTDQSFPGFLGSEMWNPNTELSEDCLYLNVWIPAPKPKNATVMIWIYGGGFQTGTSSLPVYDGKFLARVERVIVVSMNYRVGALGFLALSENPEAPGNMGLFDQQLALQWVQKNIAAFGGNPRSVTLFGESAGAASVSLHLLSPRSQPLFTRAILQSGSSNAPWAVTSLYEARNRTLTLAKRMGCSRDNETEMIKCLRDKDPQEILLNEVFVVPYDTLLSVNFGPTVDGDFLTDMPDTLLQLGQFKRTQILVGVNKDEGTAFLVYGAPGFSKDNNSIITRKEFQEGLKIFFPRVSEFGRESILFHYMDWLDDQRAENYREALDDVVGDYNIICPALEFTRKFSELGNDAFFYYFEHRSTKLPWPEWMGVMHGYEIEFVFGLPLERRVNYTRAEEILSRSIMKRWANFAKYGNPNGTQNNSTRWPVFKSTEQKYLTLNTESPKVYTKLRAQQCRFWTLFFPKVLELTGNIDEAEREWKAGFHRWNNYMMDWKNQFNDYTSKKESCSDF

As for `Nc1nonc1-c1nc2ccccc2n1CC(=O)Nc1cc([N+](=O)[O-])cc([N+](=O)[O-])c1`, the Activity entry in [1], in [5], in series [12], in series [14], in [16] and in series [18] was “Non-Toxic” each time. Besides, the Activity entry in series [22] (dose 0.3125-40 nM) is “Dose-Dependent Effect”. The IC50 amounted to 0.0346 µM in series [2], 72.3 µM in [8] and 0.00294 µM in series [21]. In addition, the outcome in series [3], in series [4], in [6], in [9], in series [13] and in series [15] was Active. In addition, the outcome in series [17] and in series [23] was Active. The viability at 100 µM in series [7] stood at 50.8%; in series [10] it was 52.4%. In addition, the IC50 at 24 h in series [11] was 19.2 µM. The half-life at 1 µM in series [19] worked out at 11.5 h. Besides, the remaining at 50 min, 1 µM in series [20] is 92.8%. For the same compound, in series [22], the Kd turned out to be 0.00309 µM.
Consider `Nc1nonc1-c1nc2ccccc2n1CC(=O)Nc1cc(F)cc(C(F)(F)F)c1`, for which the viability at 2.5 µM in series [24] was 23.4%; in [25], 39.5%. The IC50 is 0.155 µM in [2] and 0.255 µM in [21]. Moreover, the viability at 100 µM in [7] stood at 74.4%. Moreover, the viability at 24 h, 2.5 µM in series [26] turned out to be 39.5%.

By IC50 is commonly meant the concentration needed to halve the response being measured. As usually defined, the half-life is how long it takes for the measured level to halve. Usually Kd stands for the concentration at which binding is half-saturated.
